Laboratory results: patent US6180677A, “Tyrosine-derived compounds as calcium channel antagonists” (Warner-Lambert Company, priority 1999, dated 2001)
Where a name gives a salt, the structure may show the parent alone.

Experiments:
N-type Ca^2+ channel = target: T1, N-type Ca^2+ channel (Homo sapiens, UniProt Q00975); assay: N-type Ca2+ channel blocking potency in IMR-32 cells using the fluorescent Ca2+ indicator Indo-1; type: cell-based; details: for IC50: K+-stimulated Ca2+ flux, 5 μM nitrendipine to block L-type channels, read-out: IMR32 IC50; for IMR32 % @ 1: at 1 μM; for IMR32 % @ 1 / IMR32 % @ 10: 5 μM nitrendipine; for IMR32 % @ 10: at 10 μM
T1 construct: host or cells: IMR-32 human neuroblastoma cells, differentiated with dibutyryl cAMP and bromodeoxyuridine
Method: Measurement of N-type Ca^2+ Channel Blocking Potencies of Compounds in IMR-32 Cells Using the Fluorescent Ca^2+ Indicator Indo-1
IMR-32 cells are a human tumoral cell line of neural origin. […] Calcium flux into these cells may be induced by stimulation with elevated potassium concentrations. The L-channel component of calcium flux may be blocked by adding 5 μM nitrendipine. The remaining component of calcium entry into the IMR-32 cells is due to calcium flux through N-type calcium channels. Intracellular calcium concentrations are measured using the fluorescent calcium indicator Indo-1. The effect of drug concentration on calcium uptake is studied.
The IMR-32 cell line was obtained from the American Type Culture Collection (Rockville, Md.). Cells were grown in Eagle's Minimum Essential Medium with Earle's salts supplemented with 10% fetal bovine serum, 2 mM L-Gln and antibiotic/antimicotic mixture (Gibco). At approximately 80% confluency, differentiation was induced by the addition of 1 mM dibutyryl cAMP and 2.5 μM bromodeoxyuridine to the medium. After 7 to 13 days of differentiation, cells were detached using 0.5 mM EDTA and loaded with 5 μM Indo-1 acetoxymethyl ester (Molecular Probes, Eugene, Oreg.) at […] for 45 minutes. Loaded cells were washed twice, resuspended (~10^7 cells/mL) in assay buffer (10 mM HEPES/Tris pH 7.4 in Hank's Balanced Salt Solution without bicarbonate or phenol red containing 0.5% bovine serum albumin) and kept on ice until use. Fluorescence measurements were carried out in a Photon Technology International (PTI, South Brunswick, N.J.) Model RF-F3004 spectrofluorometer with dual emission monochromators using excitation at 350 nm and emission at 400 and 490 nm. The instrument was equipped with a thermostated cuvette holder with stirring capabilities, as well as with a computer-controlled pump that allowed for reagent addition during measurement. Instrument control and data collection was done by PTI's OSCAR software running on an IBM compatible computer. Different concentrations of the test compounds (60 μL in dimethyl sulfoxide) were added to 5.94 mL of assay buffer containing approximately 3×10^6 loaded cells, and 5 μM Nitrendipine (in 30 μL EtOH) to block L-type Ca^2+ channels. Samples were incubated for 10 minutes at 30° C. and then aliquoted into three 10×10 mm disposable acrylic cuvettes. Emission signals at 400 and 490 nm were acquired from each cuvette at 30° C. for 50 seconds. At 20 seconds after the start of reading, cells were depolarized by the addition of 160 μL of stimulation solution (1 M KCl, 68 mM CaCl2) to the cuvette via the computer-controlled pump. Ratio of dual emission signals (400 nm/490 nm), which is proportional to intracellular Ca^2+ concentration, was plotted against time, and the difference between maximal response after stimulation and basal value (before stimulation) was determined. Values obtained in this way were plotted as a function of drug concentration. IC50 values of test compounds were calculated by fitting a four-parameter logistic function to the data using the least squared method.

DBA/2 mice = assay: Audiogenic seizure model in DBA/2 mice; type: in vivo; details: protected/tested
Method: Audiogenic Seizure Model in DBA/2 Mice
In Vivo Biological Protocol
A compound of the present invention was dissolved in water using 10% (weight/volume) Emulphor (GAF Corp., Wayne, N.J.) surfactant. Substances were administered by intravenous injection into the retro-orbital venous sinus. All testing was performed 15 minutes or 45 minutes after drug injection. All the male mice, 3 to 4 weeks old, were obtained from Jackson Laboratories, Bar Harbour, Me. Immediately before anticonvulsant testing, mice were placed upon a wire mesh, 4 inches square suspended from a steel rod. […] Any mouse falling from the wire mesh was scored as ataxic.
Mice were placed into an enclosed acrylic plastic chamber (21 cm height, approximately 30 cm diameter) with a high-frequency speaker (4 cm diameter) in the center of the top lid. An audio signal generator (Protek model B-810) was used to produce a continuous sinusoidal tone that was swept linearly in frequency between 8 kHz and 16 kHz once each 10 msec. The average sound pressure level (SPL) during stimulation was approximately 100 dB at the floor of the chamber. Mice were placed within the chamber and allowed to acclimatize for 1 minute. DBA/2 mice in the vehicle-treated group responded to the sound stimulus (applied until tonic extension occurred, or for a maximum of 60 seconds) with a characteristic seizure sequence consisting of wild running followed by clonic seizures, and later by tonic extension, and finally by respiratory arrest and death in 80% or more of the mice. In vehicle-treated mice, the entire sequence of seizures to respiratory arrest lasts approximately 15 to 20 seconds.
The incidence of all the seizure phases in the drug-treated and vehicle-treated mice was recorded, and the occurrence of tonic seizures were used for calculating anticonvulsant ED50 values by probit analysis. Mice were used only once for testing at each time and dose point.

[1] = 10 mg/kg IV, 15 minutes post treatment
[2] = 30 mg/kg IV, 15 minutes post treatment
[3] = 30 mg/kg IV, 45 minutes post treatment

T1 sequence (Q00975 whole entry): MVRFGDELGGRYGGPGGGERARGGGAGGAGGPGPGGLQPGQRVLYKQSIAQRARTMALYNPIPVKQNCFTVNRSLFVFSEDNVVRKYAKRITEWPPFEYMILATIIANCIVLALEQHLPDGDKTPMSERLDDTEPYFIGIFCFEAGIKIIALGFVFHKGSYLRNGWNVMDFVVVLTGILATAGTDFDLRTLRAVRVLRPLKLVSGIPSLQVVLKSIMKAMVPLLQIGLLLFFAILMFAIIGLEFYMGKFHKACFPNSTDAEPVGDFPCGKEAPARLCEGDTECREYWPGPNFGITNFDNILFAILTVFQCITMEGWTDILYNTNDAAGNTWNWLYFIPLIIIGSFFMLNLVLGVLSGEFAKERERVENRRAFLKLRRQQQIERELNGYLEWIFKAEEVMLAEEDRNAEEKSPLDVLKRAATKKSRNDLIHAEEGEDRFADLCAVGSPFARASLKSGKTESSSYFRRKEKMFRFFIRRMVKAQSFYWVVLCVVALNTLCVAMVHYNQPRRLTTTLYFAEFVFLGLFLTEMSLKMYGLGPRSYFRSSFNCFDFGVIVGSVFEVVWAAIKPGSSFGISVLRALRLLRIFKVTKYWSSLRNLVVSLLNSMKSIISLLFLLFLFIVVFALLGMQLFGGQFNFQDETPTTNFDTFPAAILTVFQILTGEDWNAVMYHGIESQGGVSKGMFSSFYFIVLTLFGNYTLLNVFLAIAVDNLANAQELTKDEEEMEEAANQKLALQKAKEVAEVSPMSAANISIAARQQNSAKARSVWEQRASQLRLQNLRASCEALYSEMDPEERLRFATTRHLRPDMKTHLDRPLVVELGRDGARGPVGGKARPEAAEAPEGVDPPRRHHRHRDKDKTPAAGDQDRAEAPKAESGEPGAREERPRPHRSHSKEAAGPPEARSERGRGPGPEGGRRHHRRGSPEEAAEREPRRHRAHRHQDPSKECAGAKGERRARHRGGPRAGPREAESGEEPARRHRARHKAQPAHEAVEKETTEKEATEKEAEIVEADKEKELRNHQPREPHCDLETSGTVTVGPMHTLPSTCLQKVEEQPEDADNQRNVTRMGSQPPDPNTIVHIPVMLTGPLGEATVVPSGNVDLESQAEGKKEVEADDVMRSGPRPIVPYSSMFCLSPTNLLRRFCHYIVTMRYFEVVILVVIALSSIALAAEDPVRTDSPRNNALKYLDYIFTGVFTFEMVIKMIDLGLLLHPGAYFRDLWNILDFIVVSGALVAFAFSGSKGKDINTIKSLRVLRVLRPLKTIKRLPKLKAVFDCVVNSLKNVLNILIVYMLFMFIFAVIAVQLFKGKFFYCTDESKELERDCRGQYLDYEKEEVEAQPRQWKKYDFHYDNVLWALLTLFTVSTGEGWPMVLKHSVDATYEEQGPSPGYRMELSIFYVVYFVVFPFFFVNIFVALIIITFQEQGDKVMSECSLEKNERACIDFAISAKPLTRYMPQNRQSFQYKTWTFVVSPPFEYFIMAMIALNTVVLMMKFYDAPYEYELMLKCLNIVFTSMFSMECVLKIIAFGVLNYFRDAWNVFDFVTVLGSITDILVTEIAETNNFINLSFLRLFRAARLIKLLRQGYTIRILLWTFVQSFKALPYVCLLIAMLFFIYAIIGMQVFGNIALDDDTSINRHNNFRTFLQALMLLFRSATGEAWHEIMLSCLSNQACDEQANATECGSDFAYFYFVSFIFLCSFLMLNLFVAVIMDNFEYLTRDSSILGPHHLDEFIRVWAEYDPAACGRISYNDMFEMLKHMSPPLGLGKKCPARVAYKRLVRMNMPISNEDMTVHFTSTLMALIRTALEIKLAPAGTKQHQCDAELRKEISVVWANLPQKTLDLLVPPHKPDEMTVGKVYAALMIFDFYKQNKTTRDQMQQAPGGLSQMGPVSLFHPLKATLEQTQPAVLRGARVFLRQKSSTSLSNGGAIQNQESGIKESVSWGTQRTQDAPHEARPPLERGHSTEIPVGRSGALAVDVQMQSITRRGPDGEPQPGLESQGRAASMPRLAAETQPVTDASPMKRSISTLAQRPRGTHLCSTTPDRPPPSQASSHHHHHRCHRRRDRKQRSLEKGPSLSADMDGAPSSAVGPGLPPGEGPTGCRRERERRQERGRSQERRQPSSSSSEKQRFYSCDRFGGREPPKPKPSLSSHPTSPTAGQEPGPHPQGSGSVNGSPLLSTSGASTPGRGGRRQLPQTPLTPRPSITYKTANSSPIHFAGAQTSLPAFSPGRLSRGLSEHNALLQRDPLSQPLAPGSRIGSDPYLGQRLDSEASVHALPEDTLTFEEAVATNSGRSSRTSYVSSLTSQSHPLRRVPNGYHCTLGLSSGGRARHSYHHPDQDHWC
T1 sequence (P54289 25-956 partner limits assumed): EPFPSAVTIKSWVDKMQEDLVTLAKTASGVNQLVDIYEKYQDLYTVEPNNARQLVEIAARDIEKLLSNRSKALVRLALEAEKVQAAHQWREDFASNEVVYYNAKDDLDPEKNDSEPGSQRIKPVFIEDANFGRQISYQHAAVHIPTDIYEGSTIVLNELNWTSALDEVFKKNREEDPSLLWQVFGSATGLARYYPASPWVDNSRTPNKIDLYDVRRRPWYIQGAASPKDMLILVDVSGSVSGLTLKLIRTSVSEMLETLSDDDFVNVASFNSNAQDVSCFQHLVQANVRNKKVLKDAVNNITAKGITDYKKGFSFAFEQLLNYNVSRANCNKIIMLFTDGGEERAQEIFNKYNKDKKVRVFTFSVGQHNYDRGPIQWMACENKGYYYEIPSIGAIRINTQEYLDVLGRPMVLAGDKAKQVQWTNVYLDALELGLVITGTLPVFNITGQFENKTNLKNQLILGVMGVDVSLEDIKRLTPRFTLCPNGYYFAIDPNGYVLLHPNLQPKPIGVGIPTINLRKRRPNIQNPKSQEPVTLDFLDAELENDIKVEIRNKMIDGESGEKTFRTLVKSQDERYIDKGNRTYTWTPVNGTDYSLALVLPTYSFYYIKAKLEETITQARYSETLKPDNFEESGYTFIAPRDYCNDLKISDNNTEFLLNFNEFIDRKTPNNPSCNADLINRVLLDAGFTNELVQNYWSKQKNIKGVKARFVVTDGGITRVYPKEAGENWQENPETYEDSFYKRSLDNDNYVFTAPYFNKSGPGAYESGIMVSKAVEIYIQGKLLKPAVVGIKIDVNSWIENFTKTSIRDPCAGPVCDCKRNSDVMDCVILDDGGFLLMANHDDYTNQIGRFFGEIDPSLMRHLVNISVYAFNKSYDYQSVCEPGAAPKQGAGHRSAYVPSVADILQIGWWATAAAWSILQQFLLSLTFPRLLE
T1 sequence (P54289 957-1103 partner limits assumed): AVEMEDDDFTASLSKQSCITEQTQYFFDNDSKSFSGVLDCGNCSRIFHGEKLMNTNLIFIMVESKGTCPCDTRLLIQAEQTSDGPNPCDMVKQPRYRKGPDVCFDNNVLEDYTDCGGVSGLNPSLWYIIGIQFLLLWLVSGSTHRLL
T1 sequence (P54284 whole entry partner): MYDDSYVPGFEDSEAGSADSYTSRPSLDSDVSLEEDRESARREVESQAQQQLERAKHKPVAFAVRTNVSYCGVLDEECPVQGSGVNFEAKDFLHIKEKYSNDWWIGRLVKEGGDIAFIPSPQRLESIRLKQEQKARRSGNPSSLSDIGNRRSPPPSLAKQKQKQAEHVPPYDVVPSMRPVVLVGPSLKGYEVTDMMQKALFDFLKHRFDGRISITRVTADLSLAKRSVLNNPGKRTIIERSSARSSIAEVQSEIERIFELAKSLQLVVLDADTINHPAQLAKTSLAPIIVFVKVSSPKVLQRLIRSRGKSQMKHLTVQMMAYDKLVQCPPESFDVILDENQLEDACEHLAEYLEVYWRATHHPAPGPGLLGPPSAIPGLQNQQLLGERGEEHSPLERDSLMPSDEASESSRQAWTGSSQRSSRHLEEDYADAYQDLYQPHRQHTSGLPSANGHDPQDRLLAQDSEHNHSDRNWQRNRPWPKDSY

CC(C)(C)c1ccc(CN(Cc2ccc(C(C)(C)C)cc2)C(CNCCN2CCCCC2)Cc2ccc(OCc3ccccc3)cc2)cc1 (centres unmarked) [Example 11, 3-(4-Benzyloxy-phenyl)-N^2, N^2-bis-(4-tert-butyl-benzyl)-N^1-(2-piperidin-1-yl-ethyl)-propane-1,2-diamine]
IC50 (N-type Ca^2+ channel): 170 nM

CC(C)(C)c1ccc(CNC(CNCCN2CCCCC2)Cc2ccc(OCc3ccccc3)cc2)cc1 (centres unmarked) [Example 12, 3-(4-Benzyloxy-phenyl)-N^2-(4-tert-butyl-benzyl)-N^1-(2-piperidin-1-yl-ethyl)-propane-1,2-diamine]
Number of Mice Protected from Tonic Convulsions (DBA/2 mice; [1]): 0/5
IC50 (N-type Ca^2+ channel): 280 nM

CC(C)(C)NC(=O)[C@H](Cc1ccc(OCc2ccccc2)cc1)NCc1ccc(C(C)(C)C)cc1 [Example 9, (S)-3-(4-Benzyloxy-phenyl)-N-tert-butyl-2-(4-tert-butyl-benzylamino)-propionamide monohydrochloride]
IC50 (N-type Ca^2+ channel): 2000 nM

CC(C)CCC(CCC(C)C)N[C@@H](Cc1ccc(OCc2ccccc2)cc1)C(=O)NC(C)(C)C.Cl [Example 4, (S)-3-(4-Benzyloxy-phenyl)-N-tert-butyl-2-[4-methyl-1-(3-methyl-butyl)-pentylamino]-propionamide monohydrochloride]
IMR32 % @ 1 (N-type Ca^2+ channel): 45%
IMR32 % @ 10 (N-type Ca^2+ channel): 102%

CC(C)CCN(CC1CCCCC1)[C@@H](Cc1ccc(OCc2ccccc2)cc1)C(=O)NC(C)(C)C.Cl [Example 5, (S)-3-(4-Benzyloxy-phenyl)-N-tert-butyl-2-[cyclohexyl-methyl-(3-methyl-butyl)-amino]-propionamide monohydrochloride]
IMR32 % @ 1 (N-type Ca^2+ channel): 27%
IMR32 % @ 10 (N-type Ca^2+ channel): 61%

CC(C)CCN(CCC(C)(C)C)[C@@H](Cc1ccc(OCc2ccccc2)cc1)C(=O)NC(C)(C)C.Cl [Example 6, (S)-3-(4-Benzyloxy-phenyl)-N-tert-butyl-2-[(3,3-dimethyl-butyl)-(3-methyl-butyl)-amino]-propionamide monohydrochloride]
Number of Mice Protected from Tonic Convulsions (DBA/2 mice; [2]): 2/5
Number of Mice Protected from Tonic Convulsions (DBA/2 mice; [3]): 4/5
IC50 (N-type Ca^2+ channel): 440 nM

CC(C)(C)c1ccc(CN(Cc2ccc(C(C)(C)C)cc2)[C@@H](Cc2ccc(OCc3ccccc3)cc2)C(=O)NCCN2CCCCC2)cc1 [Example 10, (S)-3-(4Benzyloxy-phenyl)-2-[bis-(4-tert-butyl-benzyl)-amino]-N-(2-piperidin-1-yl-ethyl)-propionamide]
IC50 (N-type Ca^2+ channel): 680 nM

CC(C)CCN(CCC(C)C)[C@@H](Cc1ccc(OCc2ccccc2)cc1)C(=O)NC(C)(C)C.Cl [Example 3, (S)-3-(4-Benzyloxy-phenyl)-2-[bis-(3-methyl-butyl)-amino]-N-tert-butyl-propionamide monohydrochloride]
Number of Mice Protected from Tonic Convulsions (DBA/2 mice; [2]): 4/5
IC50 (N-type Ca^2+ channel): 760 nM

(S)-3-(4-Benzyloxy-phenyl)-N-tert-butyl-2-(3-methyl-butylamino)-propionamide monohydrochloride [Example 2]
IC50 (N-type Ca^2+ channel): 2000 nM

CC(C)(C)CCN(CCC(C)(C)C)[C@@H](Cc1ccc(OCc2ccccc2)cc1)C(=O)NC(C)(C)C [Example 8, (S)-3-(4-Benyloxy-phenyl)-2-[bis-(3,3-dimethyl-butyl)-amino]-N-tert-butyl-propionamide monohydrochloride]
IC50 (N-type Ca^2+ channel): 790 nM

CC(C)(C)NCC(Cc1ccc(OCc2ccccc2)cc1)NCc1ccc(C(C)(C)C)cc1 (centres unmarked) [Example 14, 3-(4-Benzyloxy-phenyl)-N^1-tert-butyl-N^2-(4-tert-butyl-benzyl)-propane-1,2-diamine]
Number of Mice Protected from Tonic Convulsions (DBA/2 mice; [2]): 5/5
Number of Mice Protected from Tonic Convulsions (DBA/2 mice; [3]): 4/5
IC50 (N-type Ca^2+ channel): 450 nM

CC(C)(C)c1ccc(CN[C@@H](Cc2ccc(OCc3ccccc3)cc2)C(=O)NCCN2CCCCC2)cc1 [Example 13, (S)-3-(4-Benzyloxy-phenyl)-2-(4-tert-butyl-benzylamino)-N-(2-piperidin-1-yl-ethyl)-propionamide]
Number of Mice Protected from Tonic Convulsions (DBA/2 mice; [1]): 0/5
Number of Mice Protected from Tonic Convulsions (DBA/2 mice; 10 mg/kg IV, 45 minutes post treatment): 1/5
Number of Mice Protected from Tonic Convulsions (DBA/2 mice; [2]): 4/5
Number of Mice Protected from Tonic Convulsions (DBA/2 mice; [3]): 4/5
IC50 (N-type Ca^2+ channel): 700 nM

CC(C)(C)CCN[C@@H](Cc1ccc(OCc2ccccc2)cc1)C(=O)NC(C)(C)C [Example 7, (S)-3-(4-Benzyloxy-phenyl)-N-tert-butyl-2-(3,3-dimethyl-butylamino)-propionamide monohydrochloride]
IC50 (N-type Ca^2+ channel): 1400 nM

CC(C)(C)NC(=O)[C@H](Cc1ccc(OCc2ccccc2)cc1)NC(=O)C1(c2ccccc2)CCCC1 [Example 1, (S)-1-Phenyl-cyclopentanecarboxylic acid [2-(4-benzyloxy-phenyl)-1-tert-butylcarbamoyl-ethyl]-amide]
IC50 (N-type Ca^2+ channel): 1200 nM
